Source: patent publication US20030033631A1, “Method for reducing pest damage to corn by treating transgenic corn seeds with thiamethoxam pesticide” (Monsanto Technology, L.L.C., priority 2000, published 2003)

Test system: western and northern corn rootworm
Assay: Field trial of corn rootworm feeding damage to corn roots (Iowa 1-6 rating)
Format: in vivo
Conditions: Cry3Bb.11231 transgenic corn seeds treated with thiamethoxam (300 or 400 gm AI/100 kg seed) compared with transgenic seeds without pesticide treatment, Iowa 1-6 root rating
Text: Field trials for the determination of efficacy of transgenic event Cry3Bb.11231 in corn seed in combination with corn root worm pesticide seed treatments against western and northern corn rootworm.
Field trials can be run in accordance with pertinent protocols and in conformance with USDA notification requirements. The purpose of the trials is to determine the efficacy of transgenic event Cry3Bb.11231 in corn seed in combination with corn root worm seed treatments against western and northern corn root worm.
For each growing site that is selected, the plot design would included the following:
The following seed treatment combinations can be used for each growing area: […]
The determination of damage by corn rootworm can be made according to the following protocol. […] In that system, the root systems of 10 corn plants per plot are recovered and scored using the 1-6 rating scale, where: 1=no injury or only a few minor feeding scars, 2=feeding injury evident, but no roots eaten back to 1½ inches of the plant, 3=at least one root eaten off to within 1½ inches of the plant, but never an entire node of roots destroyed, 4=one node of roots eaten back to within 1½ inches of the plant, 5=two nodes (circles) of roots eaten back to within 1½ inches of the plant, 6=three nodes (circles) of roots eaten back to within 1½ inches of the plant.

For `CN1COCN(Cc2cnc(Cl)s2)/C1=N\[N+](=O)[O-]` [thiamethoxam, 3-[(2-chloro-5-thiazolyl)mehthyl]tetrahydro-5-methyl-N-nitro-4H-1,3,5-oxadiazin-4-imine], the “resistance to corn rootworm damage” value was “more resistant to corn rootworm damage than the transgenic seeds without such pesticide treatment”.
